# Results taken from EP0461827B1, “Hair restorer” (KABUSHIKI KAISHA HAYASHIBARA SEIBUTSU KAGAKU KENKYUJO, priority 1990, dated 1991).
# Key:
# [1] = test system: volunteers with alopecias; test: 3-month clinical test of a hair restorer lotion in volunteers with alopecias; type: in vivo, human; conditions: for Therapeutic efficacy (Number of volunteers) Recovery / Therapeutic efficacy (Number of volunteers) Moderate recovery / Therapeutic efficacy (Number of volunteers) Not effected / Therapeutic efficacy (Number of volunteers) Unfavorable: 3-month, lotion with 1.0 part of ingredient, 3 times a day; for Therapeutic efficacy (Number of volunteers) Recovery: hair newly regenerated, apparently free from alopecia; for Therapeutic efficacy (Number of volunteers) Moderate recovery: moderate hair regeneration, no recurrence of alopecia; for Therapeutic efficacy (Number of volunteers) Not effected: no regeneration of hair; for Therapeutic efficacy (Number of volunteers) Unfavorable: side effect or acceleration of alopecia found; for cure rate (%): percentage of volunteers with recovery and moderate recovery against total number of each group
# Source text: Based on the results in Experiment 1, 20 randomly chosen volunteers with alopecias (10 men and 10 women) as the recipient received 3-month clinical test. The volunteers were 15-66 years old.
# The symptom of the volunteers, who had received a pharmacotherapy or physiotherapy at a department of dermatology, were the male alopecia such as senile alopecia and alopecia prematura, and alopecia areata such as multiple alopecia areata and malignant alopecia areata.
# Since the symptom of the volunteers with a slight alopecia areata may be spontaneously recovered, the volunteers with a relatively small alopecic site and those with the atrophia cutis or atrophic pores which were not clinically observed were excluded in this Experiment.
# The procedure of therapeutic treatment used in this Experiment is carried out according to conventional procedure:
# Forty-five parts of ethanol, 2 parts of glycerine, 55 parts of refined water, and 1.0 part of 2-O-α-D-glucosyl-L-ascorbic acid or α-glucosyl bioflavonoid prepared by the method in Example of Preparation 2, 4, 6 or 8, were mixed, and the mixture was adjusted to pH 6.7 by the addition of 6N sodium hydroxide to obtain a hair restorer for external application in lotion form. When the volunteers received a physical examination, their affected sites were applied a thin coat of the hair restorer, massaged and exposed to an artificial sunlight. Furthermore, the volunteers were instructed to apply the hair restorer to the affected sites 3 times a day at home.
# As control, a hair restorer for external application containing intact L-ascorbic acid or bioflavonoid in place of 2-O-α-D-glucosyl-L-ascorbic acid or α-glucosyl bioflavonoid in the above hair restorer was used.
# rabbits = test: Hair regeneration on depilated dorsum of rabbits, lotion applied once daily; type: in vivo; conditions: 1% in 50% aqueous ethanol with 2% propyleneglycol, pH 6.7, 1ml once every day, difference to untreated area; for Mean remainder of hair length (mm) 10th (day): 10th day after application; for Mean remainder of hair length (mm) 20th (day): 20th day after application; for Mean remainder of hair length (mm) 30th (day): 30th day after application
# Method: Either of an α-glycosyl-L-ascorbic acid or an α-glycosyl bioflavonoid prepared by the method in Example of Preparation 1-8 was dissolved to give a concentration of 1% in a 50% aqueous ethanol solution containing 2% propyleneglycol, and the mixture was adjusted to pH 6.7 by the addition of 6N sodium hydroxide to obtain a solution in hair lotion form. As control, a solution in hair lotion form was prepared similarly as above, except that α-glycosyl-L-ascorbic acid and α-glycosyl bioflavonoid were replaced with either of intact L-ascorbic acid, bioflavonoid and refined water.
# The dorsum surgace of rabbits was sectioned into four areas, 5cm^2 each, i.e. two areas near at head side and two areas near at tail side which were respectively bisymmetrical about the vertebral columns of the rabbits, and the four areas were depilated by applying thereto silver cream (a depilatory agent) and subjecting them to brief standing. The depilated areas were first sufficiently washed with water, then the depilated areas of the right area near at head side, the left area near at head side, and the right area near at tail side were respectively applied once every day by using a paintbrush with 1ml of the test solution, 1ml of the control solution containing refined water, and 1ml of the control solution containing L-ascorbic acid or bioflavonoid. Furthermore, the left area near at tail side was untreated.
# The application of each solution was started on the second day after the depilation, and the newly regenerated hairs were depilated to count on the 10th, 20th and 30th days after the application. The length of 10 coarse hairs regenerated in each area was measured with a micromanipulator, and expressed by the mean remainder of hair length (mm) between the hair length in the area which had been applied with a sample solution and that in the area which had been untreated.
# In addition, it has been known that the growth rates of hairs in the bisymmetrical dorsum surfaces about the vertebral column of a rabbit is in the same level, and those in both sexes are also in the same level.
# [2] = test system: α-glucosidase which had been extracted from a pig liver
hydrolysis by α-glucosidase [2],Compound,Therapeutic efficacy (Number of volunteers) Recovery [1],Therapeutic efficacy (Number of volunteers) Moderate recovery [1],Therapeutic efficacy (Number of volunteers) Not effected [1],Therapeutic efficacy (Number of volunteers) Unfavorable [1],cure rate (%) [1] [%],Mean remainder of hair length (mm) 10th (day) (rabbits) [mm],Mean remainder of hair length (mm) 20th (day) (rabbits) [mm],Mean remainder of hair length (mm) 30th (day) (rabbits) [mm]
,O=C1O[C@H]([C@@H](O)CO)C(O)=C1O[C@H]1O[C@H](CO)[C@@H](O)[C@H](O)[C@H]1O [2-O-α-D-Glucosyl-L-ascorbic acid],6 Number of volunteers,10 Number of volunteers,4 Number of volunteers,0 Number of volunteers,80,2.4,6.8,6.9
,"COc1ccc(C2CC(=O)c3c(O)cc(OC4OC(COC5OC(C)C(O)C(O)C5O)C(O)C(O)C4O)cc3O2)cc1O (stereo not drawn) [Hesperidin, reference compound]",0 Number of volunteers,3 Number of volunteers,12 Number of volunteers,5 Number of volunteers,,0.1,0.5,0.2
,"O=C1O[C@H]([C@@H](O)CO)C(O)=C1O [L-Ascorbic acid, L-ascorbic acid, reference compound]",0 Number of volunteers,3 Number of volunteers,11 Number of volunteers,6 Number of volunteers,,0.1,-0.2,0.5
,"C[C@@H]1O[C@@H](O[C@H]2[C@H](Oc3cc(O)c4c(c3)O[C@H](c3ccc(O)cc3)CC4=O)O[C@H](CO)[C@@H](O)[C@@H]2O)[C@H](O)[C@H](O)[C@H]1O [Naringin, reference compound]",0 Number of volunteers,5 Number of volunteers,10 Number of volunteers,5 Number of volunteers,,0.1,0.5,-0.2
,"C[C@@H]1O[C@@H](OC[C@H]2O[C@@H](Oc3c(-c4ccc(O)c(O)c4)oc4cc(O)cc(O)c4c3=O)[C@H](O)[C@@H](O)[C@@H]2O)[C@H](O)[C@H](O)[C@H]1O [Rutin, 3-[[6-O-(6-deoxy-α-L-mannopyranosyl)-β-D-glucopyranosyl)]oxy-2-(3,4-dihydroxyphenyl)-5,7-dihydroxy-4H-1-benzopyran-4-one, reference compound]",0 Number of volunteers,4 Number of volunteers,13 Number of volunteers,3 Number of volunteers,,0.3,0.9,0.5
formed hesperidin and D-glucose,α-Glucosyl hesperidin,4 Number of volunteers,11 Number of volunteers,5 Number of volunteers,0 Number of volunteers,75,2.3,7.4,6.7
hydrolyzed into rutin and D-glucose,α-Glucosyl rutin,6 Number of volunteers,12 Number of volunteers,2 Number of volunteers,0 Number of volunteers,90,2.5,8.2,7.6

Compound,hydrolysis by α-glucosidase [2],Therapeutic efficacy (Number of volunteers) Recovery [1],Therapeutic efficacy (Number of volunteers) Moderate recovery [1],Therapeutic efficacy (Number of volunteers) Not effected [1],Therapeutic efficacy (Number of volunteers) Unfavorable [1],cure rate (%) [1] [%],Mean remainder of hair length (mm) 10th (day) (rabbits) [mm],Mean remainder of hair length (mm) 20th (day) (rabbits) [mm],Mean remainder of hair length (mm) 30th (day) (rabbits) [mm]
α-Glucosyl naringin,hydrolyzed the α-glucosyl naringin into naringin and D-glucose,4 Number of volunteers,9 Number of volunteers,7 Number of volunteers,0 Number of volunteers,65,2.1,6.6,6.3
